Experimental data: ChEMBL document CHEMBL4190279 (Eur J Med Chem, 2017)
The source made the active and inactive calls. No cut-off for these calls is given here.

Tests used:
[1] = GPx-like activity of the compound assessed as half life for H2O2 reduction by measuring oxidation of PhSH to (PhS)2 at 50 uM measured for 180 secs by spectrophotometric analysis relative to control; format: functional
T47D [2] = test: Potency index, ratio of 5-FU GI50 to compound GI50 for human T47D cells; format: functional
[3] = GPx-like activity of the compound assessed as velocity for H2O2 reduction by measuring oxidation of PhSH to (PhS)2 at 50 uM measured for 180 secs by spectrophotometric analysis; format: functional
T47D [4] = test: Cell cycle arrest in human T47D cells assessed as accumulation at subG1-phase at 1 uM after 24 hrs by propidium iodide staining based flow cytometry; format: functional
SW1573 [5] = test: Potency index, ratio of cisplatin GI50 to compound GI50 for human SW1573 cells; format: functional
WiDr [6] = test: Potency index, ratio of cisplatin GI50 to compound GI50 for human WiDr cells; format: functional
SW1573 [7] = test: Potency index, ratio of 5-FU GI50 to compound GI50 for human SW1573 cells; format: functional
A549 [8] = test: Potency index, ratio of cisplatin GI50 to compound GI50 for human A549 cells; format: functional
WiDr [9] = test: Cell cycle arrest in human WiDr cells assessed as accumulation at subG1-phase at 1 uM after 24 hrs by propidium iodide staining based flow cytometry; format: functional
HBL-100 [10] = test: Potency index, ratio of 5-FU GI50 to compound GI50 for human HBL100 cells; format: functional
T47D [11] = test: Potency index, ratio of cisplatin GI50 to compound GI50 for human T47D cells; format: functional
WiDr [12] = test: Potency index, ratio of 5-FU GI50 to compound GI50 for human WiDr cells; format: functional
Cholinesterase [13] = molecular target: T1, Cholinesterase (Equus caballus, UniProt P81908); test: Mixed-type inhibition of equine serum BuChE assessed as enzyme-substrate-inhibitor complex using p-nitrophenyl butyrate as substrate by Lineweaver-Burk plot analysis
SW1573 [14] = test: Cell cycle arrest in human SW1573 cells assessed as accumulation at subG1-phase at 1 uM after 24 hrs by propidium iodide staining based flow cytometry; format: functional
A549 [15] = test: Cell cycle arrest in human A549 cells assessed as accumulation at subG1-phase at 1 uM after 24 hrs by propidium iodide staining based flow cytometry; format: functional
Acetylcholinesterase [16] = molecular target: T2, Acetylcholinesterase (Electrophorus electricus, UniProt O42275); test: Non-competitive inhibition of electric eel AChE assessed as enzyme-substrate-inhibitor complex using p-nitrophenyl acetate as substrate by Lineweaver-Burk plot analysis
HeLa [17] = test: Potency index, ratio of 5-FU GI50 to compound GI50 for human HeLa cells; format: functional
WiDr [18] = test: cells; details: Homo sapiens, 48 h
Description: Antiproliferative activity against human WiDr cells after 48 hrs by SRB assay

[19] = Selectivity index, ratio of Ki for equine serum BuChE assessed as enzyme-substrate-inhibitor complex to Ki for electric eel AChE assessed as enzyme-substrate-inhibitor complex
A549 [20] = test: cells; details: Homo sapiens, A549, 48 h
Description: Antiproliferative activity against human A549 cells after 48 hrs by SRB assay

SW1573 [21] = test: Cell cycle arrest in human SW1573 cells assessed as accumulation at G1-phase at 0.2 uM after 24 hrs by propidium iodide staining based flow cytometry; format: functional
WiDr [22] = test: Cell cycle arrest in human WiDr cells assessed as accumulation at G1-phase at 0.2 uM after 24 hrs by propidium iodide staining based flow cytometry; format: functional
T47D [23] = test: Cell cycle arrest in human T47D cells assessed as accumulation at G1-phase at 0.2 uM after 24 hrs by propidium iodide staining based flow cytometry; format: functional
HeLa [24] = test: Cell cycle arrest in human HeLa cells assessed as accumulation at subG1-phase at 1 uM after 24 hrs by propidium iodide staining based flow cytometry; format: functional
T47D [25] = test: cells; details: Homo sapiens, 48 h
Description: Antiproliferative activity against human T47D cells after 48 hrs by SRB assay

HBL-100 [26] = test: Cell cycle arrest in human HBL100 cells assessed as accumulation at subG1-phase at 1 uM after 24 hrs by propidium iodide staining based flow cytometry; format: functional
HeLa [27] = test: Potency index, ratio of cisplatin GI50 to compound GI50 for human HeLa cells; format: functional
HBL-100 [28] = test: Cell cycle arrest in human HBL100 cells assessed as accumulation at G1-phase at 0.2 uM after 24 hrs by propidium iodide staining based flow cytometry; format: functional
HBL-100 [29] = test: cells; details: Homo sapiens, HBL-100, 48 h
Description: Antiproliferative activity against human HBL100 cells after 48 hrs by SRB assay

Cholinesterase [30] = molecular target: T1, Cholinesterase; test: Mixed-type inhibition of equine serum BuChE assessed as enzyme-inhibitor complex using p-nitrophenyl butyrate as substrate by Lineweaver-Burk plot analysis
Acetylcholinesterase [31] = molecular target: T2, Acetylcholinesterase; test: Non-competitive inhibition of electric eel AChE assessed as enzyme-inhibitor complex using p-nitrophenyl acetate as substrate by Lineweaver-Burk plot analysis
HeLa [32] = test: Cell cycle arrest in human HeLa cells assessed as accumulation at G1-phase at 0.2 uM after 24 hrs by propidium iodide staining based flow cytometry; format: functional
SW1573 [33] = test: cells; details: Homo sapiens, SW1573, 48 h
Description: Antiproliferative activity against human SW1573 cells after 48 hrs by SRB assay

HeLa [34] = test: cells; details: Homo sapiens, 48 h
Description: Antiproliferative activity against human HeLa cells after 48 hrs by SRB assay

[35] = GPx-like activity of the compound assessed as H2O2 reduction by measuring oxidation of PhSH to (PhS)2 at 50 uM measured for 180 secs by spectrophotometric analysis relative to control; format: functional
HBL-100 [36] = test: Potency index, ratio of cisplatin GI50 to compound GI50 for human HBL100 cells; format: functional
in vitro = details: human, hTERT-BJ cells
Description: Antiproliferative activity against human hTERT-BJ cells after 48 hrs by SRB assay

A549 [37] = test: Cell cycle arrest in human A549 cells assessed as accumulation at G1-phase at 0.2 uM after 24 hrs by propidium iodide staining based flow cytometry; format: functional
Cholinesterase [38] = molecular target: T1, Cholinesterase; test: Non-competitive inhibition of equine serum BuChE assessed as enzyme-inhibitor complex using p-nitrophenyl butyrate as substrate by Lineweaver-Burk plot analysis
[39] = Selectivity index, ratio of GI50 for human hTERT-BJ cells to GI50 for human WiDr cells; format: toxicity; details: hTERT-BJ cells versus WiDr cells, read-out: RatioGI50
Acetylcholinesterase [40] = molecular target: T2, Acetylcholinesterase; test: Uncompetitive inhibition of electric eel AChE assessed as enzyme-substrate-inhibitor complex using p-nitrophenyl acetate as substrate by Lineweaver-Burk plot analysis
Cholinesterase [41] = molecular target: T1, Cholinesterase; test: Non-competitive inhibition of equine serum BuChE assessed as enzyme-substrate-inhibitor complex using p-nitrophenyl butyrate as substrate by Lineweaver-Burk plot analysis

T2 sequence (O42275 whole entry): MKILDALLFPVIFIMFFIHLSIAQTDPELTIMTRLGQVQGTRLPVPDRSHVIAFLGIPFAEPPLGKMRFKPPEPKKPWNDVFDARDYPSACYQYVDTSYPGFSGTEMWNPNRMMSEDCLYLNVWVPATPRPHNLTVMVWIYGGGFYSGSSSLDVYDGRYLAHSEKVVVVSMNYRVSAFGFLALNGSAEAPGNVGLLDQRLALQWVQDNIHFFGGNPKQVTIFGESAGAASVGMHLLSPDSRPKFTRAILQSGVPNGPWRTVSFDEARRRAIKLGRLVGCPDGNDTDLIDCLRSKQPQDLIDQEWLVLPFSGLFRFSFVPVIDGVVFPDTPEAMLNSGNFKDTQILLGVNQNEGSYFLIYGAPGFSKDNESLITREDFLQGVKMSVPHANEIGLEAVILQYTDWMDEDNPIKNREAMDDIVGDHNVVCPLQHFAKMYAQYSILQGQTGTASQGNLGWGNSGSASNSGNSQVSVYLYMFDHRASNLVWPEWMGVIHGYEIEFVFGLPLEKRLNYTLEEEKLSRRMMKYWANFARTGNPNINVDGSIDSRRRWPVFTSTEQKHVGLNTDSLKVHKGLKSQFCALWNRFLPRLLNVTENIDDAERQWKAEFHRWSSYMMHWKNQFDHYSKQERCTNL
T1 sequence (P81908 whole entry): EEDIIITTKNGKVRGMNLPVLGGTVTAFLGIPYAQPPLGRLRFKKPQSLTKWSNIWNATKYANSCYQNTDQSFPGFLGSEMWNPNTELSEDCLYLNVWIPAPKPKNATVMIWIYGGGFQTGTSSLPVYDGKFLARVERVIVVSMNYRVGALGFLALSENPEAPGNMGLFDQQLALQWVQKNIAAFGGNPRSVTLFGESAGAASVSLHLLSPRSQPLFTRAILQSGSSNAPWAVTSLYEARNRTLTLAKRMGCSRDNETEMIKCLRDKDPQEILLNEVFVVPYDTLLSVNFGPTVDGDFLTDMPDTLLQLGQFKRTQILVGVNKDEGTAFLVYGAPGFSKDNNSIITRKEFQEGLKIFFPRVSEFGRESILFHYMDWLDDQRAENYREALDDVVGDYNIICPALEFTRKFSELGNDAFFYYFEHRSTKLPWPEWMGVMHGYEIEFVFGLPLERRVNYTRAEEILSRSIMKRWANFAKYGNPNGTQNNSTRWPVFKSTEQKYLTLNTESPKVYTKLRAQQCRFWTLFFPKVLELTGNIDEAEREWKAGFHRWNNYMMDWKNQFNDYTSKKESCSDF

c1ccc2c(NCCCCCC[Se][Se]CCCCCCNc3c4c(nc5ccccc35)CCCC4)c3c(nc2c1)CCCC3
T1/2 [1]: 1.14 h
RatioGI50 (T47D [2]): <=306
Activity [3]: 36.5 µM/min
Activity (T47D [4]): >50%
RatioGI50 (SW1573 [5]): <=162
RatioGI50 (WiDr [6]): <=162
RatioGI50 (SW1573 [7]): <=306
RatioGI50 (A549 [8]): <=162
Activity (WiDr [9]): Active
RatioGI50 (HBL-100 [10]): <=306
RatioGI50 (T47D [11]): <=162
RatioGI50 (WiDr [12]): <=306
Ki (Cholinesterase [13]): 73.3 nM
Activity (SW1573 [14]): Active
Activity (A549 [15]): Active
Ki (Acetylcholinesterase [16]): 26.3 nM
RatioGI50 (HeLa [17]): <=306
GI50 (WiDr [18]): 240 nM
Ratio Ki [19]: 2.8
GI50 (A549 [20]): 140 nM
Activity (SW1573 [21]): Active
Activity (WiDr [22]): Active
Activity (T47D [23]): Active
Activity (HeLa [24]): Active
GI50 (T47D [25]): 210 nM
Activity (HBL-100 [26]): >50%
RatioGI50 (HeLa [27]): <=162
Activity (HBL-100 [28]): Active
GI50 (HBL-100 [29]): 170 nM
Ki (Cholinesterase [30]): 43.3 nM
Ki (Acetylcholinesterase [31]): 26.3 nM
Activity (HeLa [32]): Active
GI50 (SW1573 [33]): 130 nM
GI50 (HeLa [34]): 160 nM
fold change (FC) [35]: 4.7
RatioGI50 (HBL-100 [36]): <=162
GI50 at 48 h (in vitro): 240 nM
Activity (A549 [37]): Active

c1ccc([Se]CCCCCCNc2c3c(nc4ccccc24)CCCC3)cc1
T1/2 [1]: 2.13 h
Activity [3]: 19.6 µM/min
Ki (Cholinesterase [38]): 57 nM
selectivity ratio [39]: ≤ 4.7
GI50 (WiDr [18]): 890 nM
Ratio Ki [19]: 7.1
GI50 (A549 [20]): 860 nM
Ki (Acetylcholinesterase [40]): 8 nM
Ki (Cholinesterase [41]): 57 nM
GI50 (T47D [25]): 660 nM
GI50 (HBL-100 [29]): 2000 nM
GI50 (SW1573 [33]): 1100 nM
GI50 (HeLa [34]): 1200 nM
fold change (FC) [35]: 2.5
GI50 at 48 h (in vitro): 2400 nM
